The values below come from US10842777B2, “Compounds and compositions that bind and stabilize transthyretin and their use for inhibiting transthyretin amyloidosis and protein-protein interactions” (The Board of Trustees of the Leland Stanford Junior …, priority 2012, dated 2020).

One data set has as its system Hela cells. As to the kind of experiment: Cytotoxicity assay (MTT), HeLa. Type of data set: cell-based. The settings on record: 1 to 100 μM, 24 h. The protocol: (§1) Cell viability results are reported relative to cells treated with vehicle only (100% cell viability).
(§2) 5×10^3 cells were seeded on 80 μl growth media (except 2.5×10^4 Jurkat cells) in each well in 96-well plates and incubate O/N at 37° C. 20 μl of fresh growth media containing each compound were added into each well to make the final concentration ranging from 1-100 μM. DMSO was used for normalization. Cell titer was tested every 24 h using CellTiter 96 non-radioactive cell proliferation assay kit (Promega, Madison, Wis.) at 560 nm absorbance.

The target of another data set is T1, TTR (Homo sapiens, UniProt P02766).
T1 construct: purchased Sigma; host or cells: human plasma
Kind of data set: Isothermal titration calorimetry (ITC). Type of data set: binding. The following applies: for Kd: TTR 2 μM titrated with 25 μM compound, PBS pH 7.4, 25° C., two-site negative cooperativity model; for ΔG1 / ΔH1 / ΔG2 / ΔH2: ITC; for ΔG1 / ΔH1: first binding site; for ΔG2 / ΔH2: second binding site.

In data set [1] the test system is Hep3B, Jurkat, MCF7 and HeLa cell lines. As to the kind of experiment: Cytotoxicity assay (MTT), panel of four cell lines. Format: cell-based. The following applies: 1 to 100 μM, 24 h. The protocol: as §1, §2
Data set [2] addresses T2, WT-TTR in human serum (Homo sapiens, UniProt P02766). As to the kind of experiment: Serum WT-TTR tetramer stability against acid denaturation. The following applies: 10 μM compound, human serum (TTR ~5 μM), pH 4.0, 72 hours.
Description: Serum samples were incubated in acetate buffer (pH 4.0), with DMSO or 10 μM of test compound, for the desired time period (0 and 72 hours) before cross-linking, SDS-PAGE, and immunoblotting. The density of all TTR bands (TTR tetramer; arrowhead and TTR bound to RBP; solid arrow) was quantified using an Odyssey infrared imaging system (LI-COR Bioscience, Lincoln, Nebr.) and reported as % TTR tetramer=100×[(tetramer & tetramer+RBP density, 72 hrs)/(tetramer & tetramer+RBP density of DMSO, 0 hrs)].
All compounds were 10 mM stock solutions in DMSO and diluted accordingly with DMSO for different assays. 0.5 μl of each compound was added to 24.5 μl of human serum (from human male AB plasma, Sigma) to make the final concentration of 10 μM. The samples were incubated at 37° C. for 2 h, and then 10 μl of the samples were diluted 1:10 with acidification buffer (pH 4.0, 100 mM sodium acetate, 100 mM KCl, 1 mM EDTA, 1 mM DTT). […] All the samples were denatured with adding 100 μl SDS gel loading buffer and boiled for 5 min. […] The normalization was done by dividing each value of the TTR tetramer band intensity by the average of all the values at time 0.
The compounds were tested for their ability to stabilize WT-TTR in human serum (FIG. 5). […] Test compounds (10 μM) were pre-incubated with human serum (TTR ˜5 μM) and the pH was lowered to pH 4.0 to induce aggregation. Aliquots, taken at 0 and 72 hours, were treated with glutaraldehyde to cross-link TTR tetramers that remained intact in the serum sample. SDS-PAGE followed by immunoblot analysis was used to measure the amount of intact TTR tetramer after 72 hours of acid treatment in the presence and absence of test compounds.
In data set [3] the target is T2, WT-TTR in human serum. Kind of data set: Serum TTR selectivity assay (covalent probe 6 competition). Type of data set: binding. Set-up: tissue Sigma-Aldrich; host or cells: human serum (A4: from human male AB plasma). The following applies: 10 μM compound, 3.6 μM probe, human serum (TTR ~5 μM), after 6 hours; lower = more selective.
Description: 98 μL of human serum (Sigma-Aldrich) was mixed with 1 μL of test compounds (1.0 mM stock solution in DMSO, final concentration: 10 μM) and 1 μL of covalent probe 6 (0.36 mM stock solution in DMSO: final concentration: 3.6 μM). The fluorescence changes (λex=328 nm and λem=384 nm) were monitored every 10 min using a microplate spectrophotometer reader (Molecular Devices SpectraMax M5) for 6 h at 25° C.
Covalent probe 6 binds selectively to TTR in serum and covalently modifies K15, creating a fluorescent conjugate. Ligands that bind with high selectivity to TTR in serum decrease covalent probe 6 binding to TTR and therefore lower the fluorescence. All test compounds (10 μM) were incubated with human serum (WT-TTR concentration ˜5 μM) in the presence of covalent probe 6 (3.6 μM) (FIG. 4).
The next data set deals with Hep3B cells. Kind of data set: Cytotoxicity assay (MTT), Hep3B. The settings on record: 1 to 100 μM, 24 h. Type of data set: cell-based, human. Here is the method:
as §1, §2

Data set [4] concerns the target T3, V122I-TTR in serum from FAC patients (Homo sapiens, UniProt P02766, V142I).
T3 construct: stabilization of V122I-TTR in serum from two FAC patients; from tissue; host or cells: serum of two FAC patients carrying V122I
As to the kind of experiment: Serum V122I-TTR tetramer stability against acid denaturation. The following applies: 10 μM compound, pH 4.0, 72 hours. Type of data set: biochemical.

The subject of a further data set is MCF7 cells. Kind of data set: Cytotoxicity assay (MTT), MCF7. Type of data set: cell-based. The settings on record: MCF7, 1 to 100 μM, 24 h. The protocol:
as §1, §2

For data set [5] the following is noted: human subjects, 20 mg daily dose; read-out: mean maximum concentration (Cmax) in serum; cited from earlier work.

Each structure is given as a SMILES string. “Also recorded” adds a separate entry of the source. Read-outs that look alike come from different tables or passages of the source.

As to `Cc1n[nH]c(C)c1CCCOc1ccccc1F` [Compound A], the “concentration at which cytotoxicity is shown” value with Hela cells and in the data set on Hep3B cells was more than 25 µM in each case. Further, the results for the Kd on TTR (read-out: Kd1) and at TTR (read-out: Kd2) were 58 nM and 500 nM, respectively. The “concentration at which toxicity to certain cell lines is displayed” value in data set [1] is more than 25 µM. Moreover, the “TTR tetramer stabilization (% TTR tetramer)” value at WT-TTR in human serum [2] turned out to be 61.7%+/−2.1. Further, on WT-TTR in human serum [3], the “covalent probe 6 binding to TTR relative to probe alone” value is 59.3±8.7%.

The molecule `Cc1n[nH]c(C)c1CCCOc1cc(C(=O)O)ccc1F` [Compound VIIc, 3-(3-(3,5-Dimethyl-1H-pyrazol-4-yl)propoxy)-4-fluorobenzoic acid] had a V122I-TTR tetramer stabilized in [4] of approximately 100%. For the same molecule, on TTR, the ΔG1 is on record as approximately −11.4, the ΔH1 is -13.6 kcal/mol, the ΔG2 is given as approximately −8.8 and the ΔH2 is -7.5 kcal/mol. Also, the “cytotoxicity towards the cell lines tested” value in [1] is recorded as “not toxic; also recorded: no cytotoxic effects”. The “TTR tetramer stabilization (% TTR tetramer)” value at WT-TTR in human serum [2] is on record as 108+/−6%. Moreover, on WT-TTR in human serum [3], the “covalent probe 6 binding to TTR relative to probe alone” value amounted to 3.1±2.9%.

Regarding `O=C(O)c1ccc2nc(-c3cc(Cl)cc(Cl)c3)oc2c1` [tafamidis], the “concentration at which cytotoxic effects were observed” value in the data set on MCF7 cells is more than 50 µM. For the same molecule, the Cmax in [5] is approximately 7.4 µM. At TTR, the ΔG1 is approximately −11.4, the ΔH1 is -5.0 kcal/mol, the ΔG2 is approximately −8.8 and the ΔH2 is -3.9 kcal/mol. For the same molecule, at WT-TTR in human serum [2], the “TTR tetramer stabilization (% TTR tetramer)” value is given as “about 58%+/−3”.
